Laboratory results: ChEMBL document CHEMBL1159302, “Symplostatin 3, a new dolastatin 10 analogue from the marine cyanobacterium Symploca sp. VP452” (J Nat Prod, 2002)
Activity calls are given as the source filed them. The rule behind the calls is not given here. Non-standard residues stand in square brackets, D forms with d. Residues, ends and D or L forms follow the SMILES beside them. *: point of attachment. Dolaproine = CO[C@@H]([C@@H]1CCCN1)[C@@H](C)C(=O)O; Dil = CC[C@H](C)[C@H](NC)[C@@H](CC(=O)O)OC; NMe2Val = CC(C)[C@@H](C(=O)*)N(C)C; PhLac = O=C(O)[C@@H](O)Cc1ccccc1

Legend:
Assay type in all cases: functional, cell-based
[1] = tested on: KB; assay: Cytotoxicity against human KB cells by SRB assay
[2] = tested on: LoVo; assay: Cytotoxicity against human LoVo cells by SRB assay
[3] = tested on: A10; assay: Induction of cellular microtubule disrupting activity in rat A10 cells at 0.1 ug/ml after 24 hrs by indirect immunofluorescence technique
[4] = tested on: A10; assay: Induction of cellular microtubule disrupting activity in rat A10 cells at 1 ug/ml after 24 hrs by indirect immunofluorescence technique
[5] = tested on: A10; assay: Effect on morphology in rat A10 cells assessed as breakdown of nucleus into micronuclei
[6] = tested on: A10; assay: Induction of actin filament disrupting activity in rat A10 cells by rhodamine-phalloidin staining

Compound: CC[C@H](C)[C@@H]([C@@H](CC(=O)N1CCC[C@H]1[C@H](OC)[C@@H](C)C(=O)O[C@@H](Cc1ccccc1)C(=O)O)OC)N(C)C(=O)[C@@H](NC(=O)[C@H](C(C)C)N(C)C)C(C)C [SYMPLOSTATIN 3] (NMe2Val-V[Dil][Dolaproine][PhLac]-OH)
- IC50 [1]: 3.9 nM
- IC50 [2]: 10.3 nM
- Activity [3]: Active
- Activity [4]: Active
- Activity [5]: Active
- Activity [6]: inactive
